System: monoclonal anti-hcTnT antibody M11.7
Assay: ITEM-FOUR nano-ESI mass spectrometry: in-solution immune complex formation and gas-phase dissociation of M11.7 antibody–epitope peptide complexes
Type: binding
Conditions: for dx (V): Boltzmann curve parameter; for dx (V) / ΔCV50 (V) / Slope (%/V) / Δ (% pts) / in-solution immune complex formation with M11.7 (binding in words): peptide:antibody 13:1; for dx (V) / ΔCV50 (V) / Final (%) / Initial (%) / Slope (%/V): averaged from two acquisitions; for Binding Type: class by difference of normalized product ion intensities over ΔCV; for ΔCV50 (V): collision cell voltage difference for 50% dissociation, Boltzmann fit; for Final (%): normalized product ion quantity at highest applied ΔCV, peptide:antibody 13:1, 200 mM ammonium acetate pH 6.7; for Initial (%): normalized product ion quantity at lowest applied ΔCV, peptide:antibody 13:1, 200 mM ammonium acetate pH 6.7, at least 1 h RT, nano-ESI, ΔCV 0-58 V; for Slope (%/V): slope of Boltzmann curve; for Δ (% pts): difference Final minus Initial normalized product ion intensity; for in-solution immune complex formation with M11.7 (binding in words): nano-ESI-MS, 200 mM ammonium acetate pH 6.7; for KD m0g# [Ø]: apparent gas-phase dissociation constant, dimensionless number, extrapolated to ambient temperature; for ΔGm0g# / Tamb ΔSm0g# / ΔHm0g#: pseudo thermodynamic value of gas-phase complex dissociation; for ΔGm0g#: Ellingham diagram read at Tamb; for Tamb ΔSm0g# / ΔHm0g#: extrapolated to Tamb
Procedure: Immune complex-containing solutions of a wild-type epitope peptide and its corresponding antibody, e.g., P11 and M7, were prepared by mixing the two components in 200 mM ammonium acetate buffer (pH 6.7), ensuring a molar excess of the epitope peptide over the antibody to achieve binding saturation. After an incubation period of one hour, the entire mixture (~3 µL) was loaded into a nano-ESI emitter and electrosprayed. The mass spectrometer was configured to transmit only ion signals with m/z values above 3850, effectively eliminating signals from the unbound peptide (Figure 1A).
Antibody–peptide mixture solutions were prepared for ITEM FOUR experiments by mixing 5 µL of one antibody working solution with one assigned peptide working solution to generate antibody to peptide molar ratios of 1:2.1 for all solutions that contained the M7 antibody. For mixture solutions containing the M11.7 or the anti-TNFα antibody, 1:13 molar ratios were prepared. Antibodies were incubated together with peptides for at least one hour at room temperature prior to analysis.
Data acquisition for ITEM-FOUR experiments was performed as described in [18] with the Synapt G2S mass spectrometer (Waters MS-Technologies, Wilmslow, UK) and with the following instrumental settings: source temperature, 40 °C; capillary voltage, 1.0–1.3 kV; sample cone voltage, 130 V; source offset voltage, 130 V; trap gas flow (argon), 8.0 mL/min; helium gas: 20 bar. All mass spectra were acquired in positive-ion mode applying a mass window of m/z 200–8000. The quadrupole analyzer was used to block transmission of lower-molecular-mass ions: M1 = 5000 with dwell time of 25% and ramp time of 25%; M2 = 5000 with dwell time of 25% and ramp time of 25%; M3 = 5000. ΔCV in the TRAP collision cell was increased stepwise as follows: 0, 2, 6, 10, 14, 18, 22, 26, 30, 34, 40, 46, 52 and 58 V. The ion mobility separation mode was not used. All acquired scans during a given collision cell voltage difference setting were integrated to obtain an averaged spectrum from which ion intensities were extracted for ITEM-FOUR calculations. Data were acquired and processed with MassLynx software version 4.1 (Waters MS-Technologies). For exact time stamps of all measurements, refer to Table S2 in the Supplement (see also the deposited raw data supplement in the PRIDE directory). All mass spectra for each ΔCV setting were smoothed using the Savitzky-Golay method. Spectra of antibody solutions and antibody–peptide mixture solutions were smoothed using 30 cycles with a 15-mass unit window at the high mass end and at the low mass end with 3 cycles and a 2-mass unit window. All measurements were recorded in duplicate. The mass spectrometric raw data have been deposited via the ProteomeXchange Consortium in the PRIDE partner repository with the dataset identifier PXD058812 [70].
The Origin Pro 2023b (64-bit, OriginLab Corporation, Northampton, MA, USA) software package with an automation script for processing multiple datasets was used to graphically plot the extracted intensities of the ion signals of all relevant molecular entities (the immune complex with two bound peptides, the immune complex with one bound peptide, free antibodies, and free peptides) against their corresponding charge state for each collision cell voltage difference (ΔCV). Subsequently, Gaussian curve fittings were performed separately for each molecular entity. […] Iterations were performed for R2 values to be at least 0.91. Apices of Gaussian curves provided the intensities and the average m/z values for each molecular species. Intensity values of individual molecular entities (educts and products) were summed and normalized. Normalized intensities of educts and products from duplicate measurements were averaged.
The number of atoms from rituximab was used because the amino acid sequences of neither the M7 nor the M11.7 antibody were disclosed. […]

Sequence | dx (V) | Binding Type | ΔCV50 (V) | Final (%) | Initial (%) | Slope (%/V) | Δ (% pts) | in-solution immune complex formation with M11.7 (binding in words) | KD m0g# [Ø] | ΔGm0g# [kcal/mol] | Tamb ΔSm0g# [kcal/mol] | ΔHm0g# [kcal/mol]
AEQQCIRNEREKERQ [Peptide P25] | 6.00 | unorthodox (Differences in normalized product ion intensities were less than 15 percentage points, but greater than 5 percentage points) | 10.06 | 93.33 | 80.75 | 0.52 |  |  |  |  |  | 
AEQQHIRNEREKERQ [Peptide P27] | 7.60 | unorthodox (Differences in normalized product ion intensities were less than 15 percentage points, but greater than 5 percentage points) | 14.04 | 93.49 | 80.22 | 0.44 |  |  |  |  |  | 
AEQQRIQNEREKERQ [Peptide P29] | 5.17 | unorthodox (Differences in normalized product ion intensities were less than 15 percentage points, but greater than 5 percentage points) | 9.96 | 93.92 | 84.39 | 0.46 | 9.53 |  |  |  |  | 
AEQQRIRNEQEKERQ [Peptide P31] |  | non-binding (The differences in normalized product intensity values were less than 5 percentage points) |  | 93.39 | 93.60 |  |  | Loss of binding |  |  |  | 
AEQQRIRNERKKERQ [Peptide P32] | 7.32 | orthodox (The differences in normalized product ion intensity values were always greater than 15 percentage points) | 17.63 | 96.03 | 69.09 | 0.92 |  |  | 1.43 Ø | -0.21 | 12.24 | 12.03
AEQQRIRNEWEKERQ [Peptide P30] |  | non-binding (The differences in normalized product intensity values were less than 5 percentage points) |  | 94.03 | 90.48 |  |  | Loss of binding |  |  |  | 
AEQQRIWNEREKERQ [Peptide P28] | 6.90 | unorthodox (Differences in normalized product ion intensities were less than 15 percentage points, but greater than 5 percentage points) | 13.80 | 93.90 | 86.91 | 0.25 | 6.99 |  |  |  |  | 
AEQQSIRNEREKERQ [Peptide P26] | 6.49 | unorthodox (Differences in normalized product ion intensities were less than 15 percentage points, but greater than 5 percentage points) | 26.67 | 86.48 | 80.48 | 0.25 | 6.00 |  |  |  |  | 
AEQRRIRNEREKERQ [Peptide P24] |  | non-binding (The differences in normalized product intensity values were less than 5 percentage points) |  | 93.57 | 90.25 |  |  | Loss of binding |  |  |  | 
AKQQRIRNEREKERQ [Peptide P23] | 7.29 | orthodox (The differences in normalized product ion intensity values were always greater than 15 percentage points) | 22.47 | 89.77 | 67.00 | 0.78 |  |  | 1.18 Ø | -0.1 | 9.037 | 8.941
AQQQRIRNEREKERQ [Peptide P22] | 7.70 | unorthodox (Differences in normalized product ion intensities were less than 15 percentage points, but greater than 5 percentage points) | 25.18 | 97.12 | 87.08 | 0.33 |  |  |  |  |  | 

Source: publication PMC12112476, “Mass Spectrometric ITEM-FOUR Analysis Reveals Coding Single-Nucleotide Polymorphisms in Human Cardiac Troponin T That Evade Detection by Sandwich ELISAs Which Use Monoclonal Antibodies M7 and M11.7 from the Elecsys Troponin T® Assay” (International Journal of Molecular Sciences, 2025)
